Assay [1] has as its target T1, Rat recombinant PDE10A (rPDE10A2) (Rattus norvegicus, UniProt Q9QYJ6).
T1 construct: made in house; host or cells: Sf9 insect cells (baculovirus)
T1 sequence (Q9QYJ6 1-794): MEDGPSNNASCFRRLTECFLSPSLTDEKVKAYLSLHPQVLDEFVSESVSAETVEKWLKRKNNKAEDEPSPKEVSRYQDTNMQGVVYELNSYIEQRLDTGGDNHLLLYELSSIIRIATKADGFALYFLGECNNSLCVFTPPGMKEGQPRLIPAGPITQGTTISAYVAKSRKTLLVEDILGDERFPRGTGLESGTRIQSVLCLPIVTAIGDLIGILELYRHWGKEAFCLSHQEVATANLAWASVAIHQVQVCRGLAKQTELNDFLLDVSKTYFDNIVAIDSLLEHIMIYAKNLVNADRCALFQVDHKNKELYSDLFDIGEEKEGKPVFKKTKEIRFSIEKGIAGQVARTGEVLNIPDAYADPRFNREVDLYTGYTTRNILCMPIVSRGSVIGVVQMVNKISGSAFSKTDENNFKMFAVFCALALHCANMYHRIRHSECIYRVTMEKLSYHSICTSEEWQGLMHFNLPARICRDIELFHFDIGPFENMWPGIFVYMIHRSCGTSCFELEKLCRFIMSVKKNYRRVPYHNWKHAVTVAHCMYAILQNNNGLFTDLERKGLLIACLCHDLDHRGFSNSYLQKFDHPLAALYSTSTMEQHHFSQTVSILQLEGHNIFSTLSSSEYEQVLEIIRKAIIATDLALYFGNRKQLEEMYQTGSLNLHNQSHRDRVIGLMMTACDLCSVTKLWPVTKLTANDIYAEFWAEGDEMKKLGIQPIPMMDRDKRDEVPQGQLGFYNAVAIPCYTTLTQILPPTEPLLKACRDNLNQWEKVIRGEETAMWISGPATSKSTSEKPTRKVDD
Description: In vitro assay PDE10A (SPA, 3H-cAMP). The following applies: for IC50: read-out: PIC50 PDE10 (converted). The assay is classed as biochemical.

The target in assay [2] is T2, Human recombinant PDE2A (hPDE2A) (Homo sapiens, UniProt O00408).
T2 construct: made in house; host or cells: Sf9 insect cells (baculovirus)
Description: In vitro assay PDE2A (SPA, 3H-cGMP). The following applies: read-out: pIC50 PDE2 (converted). The class given is biochemical.
Description: Tested compounds were dissolved and diluted in 100% DMSO to a concentration 100 fold of the final concentration in the assay. Compound dilutions (0.4 μl) were added in 384 well plates to 20 μl of incubation buffer (50 mM Tris pH 7.8, 8.3 mM MgCl2, 1.7 mM EGTA). 10 μl of hPDE2A enzyme in incubation buffer was added and the reaction was started by addition of 10 μl substrate to a final concentration of 10 μM cGMP and 0.01 μCi ^3H-cGMP. The reaction was incubated for 45 minutes at room temperature. […] After sedimentation of the beads during 30 minutes the radioactivity was measured in a Perkin Elmer Topcount scintillation counter and results were expressed as cpm. For blanc values the enzyme was omitted from the reaction and replaced by incubation buffer. Control values were obtained by addition of a final concentration of 1% DMSO instead of compound.

Assay [3] relates to Apomorphine-induced agitation. Description: Reversal of Apomorphine-induced Agitation in Rats (APO). The class given is in vivo, rat. The following applies: for PO Max effect (cumulative agitation score over 60 min) / SC Max effect (cumulative agitation score over 60 min): apomorphine 1.0 mg/kg i.v.; for PO LAD (lowest active dose) / SC LAD (lowest active dose): lowest dose at which ≥67% tested animals respond; for SC Dose at max effect / SC Max effect (cumulative agitation score over 60 min) / SC LAD (lowest active dose): subcutaneous route.
Description: Apomorphine (1.0 mg/kg, i.v.)-induced agitation was scored every 5 min over the first hour after injection of apomorphine. The score system was: (3) pronounced, (2) moderate, (1) slight, and (0) absent. […] For the present purpose, the cumulative agitation score over the whole 60-min observation period was used as a measure to describe the maximum effect (Max effect).

The mark [4] stands for this setting: -log IC50 expressed in mol/L, rPDE10A2, 60 nM cAMP.

The text below walks through data of US10604523B2, “1-aryl-4-methyl-[1,2,4]triazolo[4,3-a]quinoxaline derivatives” (Janssen Pharmaceutica NV, priority 2011, dated 2020).

Like-named read-outs stand apart in the source and are kept apart here.

T2 sequence (O00408 whole entry): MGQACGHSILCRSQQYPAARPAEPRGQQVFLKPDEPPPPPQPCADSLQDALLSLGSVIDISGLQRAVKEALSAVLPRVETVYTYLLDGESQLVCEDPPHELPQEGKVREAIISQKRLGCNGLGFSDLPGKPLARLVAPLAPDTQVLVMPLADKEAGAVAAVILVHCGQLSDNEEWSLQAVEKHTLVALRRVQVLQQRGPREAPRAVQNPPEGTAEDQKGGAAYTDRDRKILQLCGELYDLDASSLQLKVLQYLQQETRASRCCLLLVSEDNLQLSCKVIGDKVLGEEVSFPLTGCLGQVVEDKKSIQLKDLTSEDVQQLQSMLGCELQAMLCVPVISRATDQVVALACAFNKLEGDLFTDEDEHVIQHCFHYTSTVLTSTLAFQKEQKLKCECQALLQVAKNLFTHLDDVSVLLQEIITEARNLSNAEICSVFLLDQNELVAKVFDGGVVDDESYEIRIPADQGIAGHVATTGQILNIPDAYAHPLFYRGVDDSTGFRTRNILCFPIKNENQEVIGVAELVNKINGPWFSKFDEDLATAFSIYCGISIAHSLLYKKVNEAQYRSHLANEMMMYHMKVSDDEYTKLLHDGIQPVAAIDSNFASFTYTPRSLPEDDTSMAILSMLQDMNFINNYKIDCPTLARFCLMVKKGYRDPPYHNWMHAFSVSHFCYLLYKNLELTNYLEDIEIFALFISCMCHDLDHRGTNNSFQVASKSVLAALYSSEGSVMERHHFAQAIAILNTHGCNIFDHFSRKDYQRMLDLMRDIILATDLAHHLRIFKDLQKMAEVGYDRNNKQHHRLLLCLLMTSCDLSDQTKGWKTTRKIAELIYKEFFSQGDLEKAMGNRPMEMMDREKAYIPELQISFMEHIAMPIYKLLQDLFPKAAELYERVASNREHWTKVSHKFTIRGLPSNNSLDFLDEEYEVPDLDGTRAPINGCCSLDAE

With `CCCOc1cncc(-c2nnc3c(C)nc4ccc(CNC5CCC5)cc4n23)c1` [Compound B-209], the IC50 was over 10000 nM in assay [1] and 302 nM in assay [2].

With `COc1ccc2nc(C)c3nnc(-c4ccccc4OC(F)(F)F)n3c2c1` [Compound B-164], the IC50 is 2510 nM in assay [1] and 69.2 nM in assay [2].

Turning to `CCOCc1cncc(-c2nnc3c(C)nc4ccc(CN5CCOCC5)cc4n23)c1` [Compound B-194], the IC50 in assay [1] was 7760 nM; in assay [2], 29.5 nM.

Consider `COC1CCCN(Cc2ccc3nc(C)c4nnc(-c5ccccc5Cl)n4c3c2)C1` (stereo not drawn) [Compound B-86], for which the IC50 in assay [1] was 38 nM; in assay [2] it was 11 nM.

Turning to `Cc1nc2ccc(CN3CCC(O)CC3)cc2n2c(-c3cc(OC(C)C)ccc3Cl)nnc12` [Compound B-136], the IC50 is 1260 nM in assay [1] and 31.6 nM in assay [2].

In the case of `CCCCOc1cncc(-c2nnc3c(C)nc4ccc(Br)cc4n23)c1` [Compound B-7, 8-Bromo-1-(5-butoxypyridin-3-yl)-4-methyl[1,2,4]triazolo[4,3-a]quinoxaline], the IC50 in assay [1] is 3390 nM; in assay [2], 18.6 nM.

Regarding `Cc1nc2ccc(C(N3CCOCC3)C(F)(F)F)cc2n2c(-c3ccccc3Cl)nnc12` (stereo not drawn) [Compound B-22, 1-(2-Chlorophenyl)-4-methyl-8-(2,2,2-trifluoro-1-morpholin-4-ylethyl) [1,2,4]triazolo[4,3-a]quinoxaline], the IC50 in assay [1] was 89.1 nM; in assay [2], 7.76 nM.

For `COc1cncc(-c2nnc3c(C)nc4ccc(C(F)(F)F)cc4n23)c1` [Compound B-163], the IC50 in assay [1] was 1150 nM; in assay [2] it was 69.2 nM.

As for `Cc1nc2ccc(C(=O)NCc3cc(F)ccn3)cc2n2c(-c3ccccc3Cl)nnc12` [Compound B-31], the IC50 is 8.13 nM in assay [1] and 0.204 nM in assay [2].

Take `Cc1nc2ccc(Br)cc2n2c(-c3cncc(Cl)c3)nnc12` [Compound B-171]: the IC50 is 741 nM in assay [1] and 117 nM in assay [2].

Take `COc1ccc(Cl)c(-c2nnc3c(C)nc4ccc(Br)cc4n23)c1` [Compound B-69]: the IC50 was 77.6 nM in assay [1] and 6.17 nM in assay [2].

With `CCCCOc1cncc(-c2nnc3c(C)nc4ccc(CN5CCCC5)cc4n23)c1` [Compound B-206], the IC50 in assay [1] was over 10000 nM; in assay [2], 135 nM.

In the case of `Cc1nc2ccc(CN3CCC(N(C)C)CC3)cc2n2c(-c3ccccc3Cl)nnc12` [Compound B-157], the results for the IC50 in assay [1] and in assay [2] were 282 nM and 57.5 nM, respectively.

Consider `Cc1cncc(-c2nnc3c(C)nc4ccc(C(F)(F)F)cc4n23)c1` [Compound B-162], for which the IC50 in assay [1] was 871 nM; in assay [2], 67.6 nM.

For `Cc1nc2ccc(CN3CCC(F)CC3)cc2n2c(-c3cncc(OCC4CC4)c3)nnc12` [Compound B-199], the IC50 in assay [1] is 3890 nM; in assay [2], 89.1 nM.

With `Cc1ncccc1-c1nnc2c(C)nc3ccccc3n12` [Compound B-174], in assay [2], the IC50 is 138 nM.

Regarding `Cc1nc2ccc(C(=O)C3CC3)cc2n2c(-c3ccccc3Cl)nnc12` [Compound B-144], the IC50 was 31.6 nM in assay [1] and 4.47 nM in assay [2].

For the compound `COCCCc1cncc(-c2nnc3c(C)nc4ccc(CN5CCOCC5)cc4n23)c1` [Compound B-204], the IC50 in assay [1] is 8130 nM; in assay [2], 132 nM.

For `Cc1nc2ccc(Br)cc2n2c(-c3cc(OC(C)C)ccc3Cl)nnc12` [Compound B-100], the IC50 in assay [1] is 1230 nM; in assay [2] it was 14.8 nM.

Regarding `COCCc1cncc(-c2nnc3c(C)nc4ccc(CN5CCOCC5)cc4n23)c1` [Compound B-198], the IC50 is 5890 nM in assay [1] and 89.1 nM in assay [2].

Regarding `CCOCc1cncc(-c2nnc3c(C)nc4ccc(CNC5CCC5)cc4n23)c1` [Compound B-213], the IC50 in assay [1] is over 10000 nM; in assay [2], 372 nM.

For `Cc1nc2ccc(NC3CCN(C)CC3)cc2n2c(-c3ccccc3Cl)nnc12` [Compound B-147], the IC50 was 87.1 nM in assay [1] and 44.7 nM in assay [2].

As to `CCCOc1ccc(Cl)c(-c2nnc3c(C)nc4ccc(CN5CCC(O)CC5)cc4n23)c1` [Compound B-129], the IC50 in assay [1] was 891 nM; in assay [2], 28.8 nM.

For the compound `COCCC1CN(Cc2ccc3nc(C)c4nnc(-c5ccccc5Cl)n4c3c2)CCO1` (stereo not drawn) [Compound B-106], the IC50 in assay [1] is 89.1 nM; in assay [2], 19.5 nM.

Turning to `Cc1nc2ccc(COc3ccccc3)cc2n2c(-c3ccccc3)nnc12` [Compound B-98], the IC50 in assay [1] was 191 nM; in assay [2] it was 14.5 nM.

With `Cc1nc2ccc(CN3CCN(C)CC3)cc2n2c(-c3cc(OC(C)C)ccc3Cl)nnc12` [Compound B-170], the results for the IC50 in assay [1] and in assay [2] were 3630 nM and 102 nM, respectively.

Turning to `COCCNC(=O)c1ccc2nc(C)c3nnc(-c4ccccc4Cl)n3c2c1` [Compound B-37], the results for the IC50 in assay [1] and in assay [2] were 20.4 nM and 0.631 nM, respectively.

For `Cc1nc2ccccc2n2c(-c3cncc(Cl)c3)nnc12` [Compound B-183], in assay [2], the IC50 is 316 nM.

`Cc1nc2ccc(C(=O)NCc3ccccn3)cc2n2c(-c3ccccc3Cl)nnc12` [Compound B-35]: in assay [3], the PO Dose at Max Effect was 10 mg/kg, the “PO Max effect (cumulative agitation score over 60 min)” value is given as 22 and the PO LAD (lowest active dose) is over 10 mg/kg. Besides, in assay [1] (setting [4]), the IC50 was 8.32 nM.

Turning to `CCCOc1ccc(Cl)c(-c2nnc3c(C)nc4ccc(CN5CCOCC5)cc4n23)c1` [Compound B-72], in assay [3], the SC Dose at max effect came to 10 mg/kg, the “SC Max effect (cumulative agitation score over 60 min)” value amounted to 23 and the SC LAD (lowest active dose) is over 10 mg/kg. In assay [1] (setting [4]), the “PIC50 PDE10” value was 6.49.

`Cc1nc2ccc(CN(C)C)cc2n2c(-c3ccccc3Cl)nnc12` [Compound B-107]: in assay [3], the SC Dose at max effect is 10 mg/kg, the “SC Max effect (cumulative agitation score over 60 min)” value stood at 20.5 and the SC LAD (lowest active dose) is over 10 mg/kg. In addition, the IC50 in assay [1] was 107 nM.

On to `CCN(CC)CCNC(=O)c1ccc2nc(C)c3nnc(-c4ccccc4Cl)n3c2c1` [Compound B-41], for which, in assay [3], the SC Dose at max effect was 10 mg/kg, the “SC Max effect (cumulative agitation score over 60 min)” value was determined as 22 and the SC LAD (lowest active dose) was over 10 mg/kg. Also, in assay [1], the IC50 was 44.7 nM.

As for `Cc1nc2ccc(Br)cc2n2c(-c3ccccc3Cl)nnc12` [Compound B-3a, 8-Bromo-1-(2-chlorophenyl)-4-methyl[1,2,4]triazolo[4,3-a]quinoxaline], in assay [3], the PO Dose at Max Effect turned out to be 10 mg/kg, the “PO Max effect (cumulative agitation score over 60 min)” value was determined as 22 and the PO LAD (lowest active dose) was over 10 mg/kg. The IC50 in assay [1] (setting [4]) is 43.7 nM.

As for `CCNC(=O)c1ccc2nc(C)c3nnc(-c4cccnc4C)n3c2c1` [Compound B-68], in assay [3], the SC Dose at max effect stood at 10 mg/kg, the “SC Max effect (cumulative agitation score over 60 min)” value was 22 and the SC LAD (lowest active dose) is over 10 mg/kg. For the same compound, the IC50 in assay [1] (setting [4]) was 178 nM.

As to `CCNC(=O)c1ccc2nc(C)c3nnc(-c4ccccc4Cl)n3c2c1` [Compound B-10, 1-(2-Chlorophenyl)-N-ethyl-4-methyl[1,2,4]triazolo[4,3-a]quinoxaline-8-carboxamide], in assay [3], the PO Dose at Max Effect is 2.5 mg/kg, the “PO Max effect (cumulative agitation score over 60 min)” value was 21 and the PO LAD (lowest active dose) was over 2.5 mg/kg. For the same compound, in assay [1] (setting [4]), the IC50 is 21.4 nM.

As to `COC1CCN(Cc2ccc3nc(C)c4nnc(-c5ccccc5Cl)n4c3c2)CC1` [Compound B-93], in assay [3], the SC Dose at max effect is 10 mg/kg, the “SC Max effect (cumulative agitation score over 60 min)” value is 7 and the SC LAD (lowest active dose) was determined as 10 mg/kg. In addition, the “PIC50 PDE10” value in assay [1] (setting [4]) is listed as 7.41.

For `Cc1nc2ccc(CN3CCCC(O)C3)cc2n2c(-c3ccccc3Cl)nnc12` (stereo not drawn) [Compound B-62], in assay [3], the SC Dose at max effect was 10 mg/kg, the “SC Max effect (cumulative agitation score over 60 min)” value is reported as 21 and the SC LAD (lowest active dose) is over 10 mg/kg. Moreover, in assay [1], the IC50 is 19.5 nM.

As for `COc1ccc(Cl)c(-c2nnc3c(C)nc4ccc(CN5CCOCC5)cc4n23)c1` [Compound B-84], in assay [3], the PO Dose at Max Effect came out at 10 mg/kg, the “PO Max effect (cumulative agitation score over 60 min)” value is recorded as 21 and the PO LAD (lowest active dose) is over 10 mg/kg. The IC50 in assay [1] (setting [4]) is 105 nM.

With `Cc1cncc(-c2nnc3c(C)nc4ccccc4n23)c1` [Compound B-177], the IC50 in assay [2] is 162 nM.

For the compound `COc1cncc(-c2nnc3c(C)nc4ccc(CN5CCOCC5)cc4n23)c1` [Compound B-91], in assay [3], the SC Dose at max effect was determined as 10 mg/kg, the “SC Max effect (cumulative agitation score over 60 min)” value is reported as 21 and the SC LAD (lowest active dose) is over 10 mg/kg. For the same compound, the “PIC50 PDE10” value in assay [1] (setting [4]) came to 6.57.
